Results: the supplement of paper PMC10307832

What was measured:
Assay in all cases: relative viability (nuclei count vs DMSO), 5 days (fraction); higher = more cells survive
GW-2580 + OSI-027 = compound: COC1=CC=C(C=C1)COC2=C(C=C(C=C2)CC3=CN=C(N=C3N)N)OC [GW-2580] + COc1cccc2cc(-c3nc([C@H]4CC[C@H](C(=O)O)CC4)n4ncnc(N)c34)[nH]c12 [OSI-027] (partner 0.5 µM)
Outline: (§1)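 Values are medians from duplicate plates. Each reflects relative viability, defined as the nuclei count of treated wells over that of vehicle wells. Lung cancer cell lines in 1536-well plates were pin-tool dosed one day after seeding with one drug alone or with a fixed anchor-drug dose plus five library-drug doses (not always all listed) in √10 steps, then fixed, stained and imaged at 4× after 5 days.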

Fedratinib + AZD7762 = compound: Cc1cnc(Nc2ccc(OCCN3CCCC3)cc2)nc1Nc1cccc(S(=O)(=O)NC(C)(C)C)c1 [Fedratinib] + NC(=O)Nc1cc(-c2cccc(F)c2)sc1C(=O)N[C@H]1CCCNC1 [AZD7762] (partner 0.2 µM)
Outline: as §1

GW-2580 + Pictilisib = compound: COC1=CC=C(C=C1)COC2=C(C=C(C=C2)CC3=CN=C(N=C3N)N)OC [GW-2580] + CS(=O)(=O)N1CCN(Cc2cc3nc(-c4cccc5[nH]ncc45)nc(N4CCOCC4)c3s2)CC1 [Pictilisib] (partner 1 µM)
Outline: as §1

GW-2580 + Olaparib = compound: COC1=CC=C(C=C1)COC2=C(C=C(C=C2)CC3=CN=C(N=C3N)N)OC [GW-2580] + O=C(c1cc(Cc2n[nH]c(=O)c3ccccc23)ccc1F)N1CCN(C(=O)C2CC2)CC1 [Olaparib] (partner 8 µM)
Outline: as §1

GW-2580 + Bortezomib = compound: COC1=CC=C(C=C1)COC2=C(C=C(C=C2)CC3=CN=C(N=C3N)N)OC [GW-2580] + CC(C)C[C@H](NC(=O)[C@H](Cc1ccccc1)NC(=O)c1cnccn1)B(O)O [Bortezomib] (partner 0.002 µM)
Outline: as §1

| Cell Line | relative viability (GW-2580 + OSI-027; first compound 0.08 µM) | relative viability (GW-2580 + OSI-027; first compound 0.8 µM) | relative viability (GW-2580 + OSI-027; first compound 2.53 µM) | relative viability (GW-2580 + OSI-027; first compound 8 µM) | relative viability (Fedratinib + AZD7762; first compound 0.1 µM) | relative viability (Fedratinib + AZD7762; first compound 0.3162 µM) | relative viability (Fedratinib + AZD7762; first compound 1 µM) | relative viability (GW-2580 + Pictilisib; first compound 0.08 µM) | relative viability (GW-2580 + Pictilisib; first compound 0.8 µM) | relative viability (GW-2580 + Pictilisib; first compound 2.53 µM) | relative viability (GW-2580 + Pictilisib; first compound 8 µM) | relative viability (GW-2580 + Olaparib; first compound 0.08 µM) | relative viability (GW-2580 + Olaparib; first compound 0.8 µM) | relative viability (GW-2580 + Olaparib; first compound 2.53 µM) | relative viability (GW-2580 + Olaparib; first compound 8 µM) | relative viability (GW-2580 + Bortezomib; first compound 0.08 µM) | relative viability (GW-2580 + Bortezomib; first compound 0.8 µM) | relative viability (GW-2580 + Bortezomib; first compound 2.53 µM) | relative viability (GW-2580 + Bortezomib; first compound 8 µM) |
| --- | --- | --- | --- | --- | --- | --- | --- | --- | --- | --- | --- | --- | --- | --- | --- | --- | --- | --- | --- |
| NCI-H358 | 0.944 | 0.817 | 0.667 | 0.742 | 0.502 | 0.49 | 0.438 | 0.356 | 0.32 | 0.28 | 0.308 | 0.652 | 0.658 | 0.635 | 0.621 |  |  |  |  |
| NCI-H520 | 0.276 | 0.316 | 0.241 | 0.272 |  |  |  | 0.35 | 0.287 | 0.279 | 0.332 | 0.3 | 0.416 | 0.337 | 0.342 | 0.58 | 0.923 | 0.602 | 0.672 |
| NCI-H522 | 0.688 | 0.618 | 0.845 | 0.723 | 0.829 | 0.851 | 0.77 |  |  |  |  | 0.623 | 0.608 | 0.611 | 0.602 |  |  |  |  |
| NCI-H661 | 0.739 | 0.754 | 0.644 | 0.543 |  |  |  | 0.343 | 0.377 | 0.321 | 0.361 | 0.807 | 0.813 | 0.722 | 0.665 | 0.741 | 0.752 | 0.747 | 0.676 |
| NCI-H1299 |  |  |  |  |  |  |  | 0.776 | 0.736 | 0.773 | 0.748 | 1.05 | 0.965 | 0.922 | 0.876 | 1.02 | 0.949 | 1.07 | 0.941 |
| NCI-H1395 | 0.64 | 0.689 | 0.661 | 0.684 | 0.385 | 0.402 | 0.377 | 0.626 | 0.584 | 0.561 | 0.632 | 0.426 | 0.427 | 0.489 | 0.425 |  |  |  |  |
| NCI-H1563 | 0.827 | 0.803 | 0.737 | 0.707 |  |  |  | 0.686 | 0.661 | 0.655 | 0.642 |  |  |  |  | 0.8 | 0.986 | 0.764 | 0.842 |
| NCI-H1648 | 0.27 |  |  | 0.231 | 0.818 | 0.558 | 0.548 |  |  |  |  | 1.34 |  | 0.666 | 0.764 |  |  |  |  |
| NCI-H1650 | 0.738 | 0.747 | 0.624 | 0.464 |  |  |  | 0.644 | 0.564 | 0.454 | 0.601 | 0.704 | 0.951 | 0.719 | 0.774 | 0.218 | 0.232 | 0.164 | 0.199 |
| NCI-H1703 |  |  |  |  | 0.126 | 0.138 | 0.121 | 0.218 | 0.295 | 0.267 | 0.234 | 0.418 | 0.43 | 0.412 | 0.363 | 0.307 | 0.351 | 0.532 | 0.335 |
| NCI-H1793 | 0.365 | 0.323 | 0.306 | 0.254 | 0.324 | 0.402 | 0.326 | 0.312 | 0.33 | 0.216 | 0.254 | 0.892 | 1.02 | 0.822 | 0.804 |  |  |  |  |
